SMILES strings stand for the structures.

Consider one compound from patent US9649305B2, “PFKFB3 inhibitor and methods of use as an anti-cancer therapeutic” (ADVANCED CANCER THERAPEUTICS, LLC, priority 2012, dated 2017).

The target in series [1] is T1, PFKFB3 (Homo sapiens, UniProt Q16875). Put plainly: Enzymatic activity of recombinant PFKFB3, ADP-Glo assay. The class given is biochemical. As to conditions: Table 1; read-out: IC50, Enzymatic activity of PFKFB3, ADP Glo Assay. As to the method: The inducible bifunctional 6-Phosphofructo-2-kinase/fructose2,6-biphosphatase enzyme (PFKFB3) was expressed and purified in order to determine if PFK-158 inhibits enzymatic activity. PFKFB3 was prepared by expression in E. coli and purified by GST column and column chromatography. […] The recombinant protein was pure and active as determined by the results of a commercially available kinase activity assay (ADP-Glo™, Promega, Madison, Wis.).

The nature of series [2]: IV pharmacokinetics in mice. The class given is in vivo, Balbc mice. The note with it: mouse, plasma, 5 mg/kg, Table 2, Balbc mice, IV dosing. As to the method: The pharmacokinetic (PK) parameters for PFK-158 were determined in mice following IV (intravenous) administration in mice and rats. A typical study design includes six animals (male or female) 7 to 8 weeks old.
Mouse pharmacokinetic properties using a dose of 5 mg/kg were determined after IV administration using a 10% DMSO, 10% PEG-200, 10% Solutol:ethanol (1:1) and 70% D5W solution or any other pharmaceutically acceptable parenteral formulation. Blood samples were collected at different intervals. Plasma samples were extracted and analyzed using an LC-MS/MS method. Similar protocols were used for the rat PK study (Sprague Dawley rats; 30 mg/kg), although the formulation for rat PK studies differed (30% Captisol, pH 3.0 solution). Time vs. plasma concentration plots were prepared as shown in FIGS. 4 (BalbC mice) and 5 (SD rats), respectively. Pharmacokinetic parameters were calculated and are provided below in Table 7.

A short description of series [3]: Maximum tolerated dose study. The class given is in vivo. The note with it: C57/B16, mouse, in vivo; 3 days on/3 days off schedule; read-out: MTD. On the procedure: Several maximum tolerated dose studies and toxicology studies were performed and the results indicated PFK-158 is safer than PFK-015. Studies were performed in C57/B16 mice and SD rats.
Series [4] has as its system lung cancer model, pancreatic cancer model, colon cancer model. Put plainly: Tumor growth inhibition in mouse cancer models. The note with it: mouse cancer models, during treatment. As to the method: Studies determining efficacy of PFK-158 at inhibiting tumor growth in mouse cancer models were performed. These studies were carried out with PFK-158 alone and in combination with compounds currently used in the treatment of cancer patients. Studies were performed in a lung cancer model, a pancreatic cancer model, and in a colon cancer model.
Efficacy of PFK-158 was studied in vivo in tumor models. Several tumor models were used in these studies (the Lewis lung carcinoma, or LLC model, the CT-26 colon carcinoma tumor model, or the BXPC3 pancreatic cancer model). The experimental protocol for the LLC study is described below. Subsequent to subcutaneous inoculation of tumor cells, tumors started to develop and once tumors reached the desired volume of 100-125 mm^3 on average, treatment was initiated. Tumor volume was monitored in both groups and the average for both the control and treatment groups was measured three times a week, as well as body weights.
Briefly, normal female C57BL/6 mice at 7-8 weeks of age were used for the study. Mice were housed in microisolator housing, with food and water provided as libitum, and quarantined for 4 days prior to the initiation of the study. LLC cells were maintained in a monolayer culture in DMEM medium supplemented with 10% heat inactivated fetal calf serum, 100 U/ml penicillin and 100 μg/ml streptomycin, and L-glutamine (2 mM) at 37° C. in an atmosphere of 5% CO2 in air. The tumor cells were routinely sub-cultured twice a week. The cells growing in an exponential phase were harvested and counted for tumor inoculation. Each mouse was inoculated subcutaneously at the right flank with the LLC tumor cells (3×10^5) in 0.1 ml of PBS for tumor development. When athymic nude mice were used, as for the BxPC3 model, then the strain of mice is slightly different. Furthermore, the use of Matrigel supports tumor development, meaning that cells are suspended in 100 μl of a mixture of medium/Matrigel (1:1) and are then subcutaneously implanted in the right flank region. Animals were monitored for tumor growth daily after cell implantation. When tumor volumes reached approximately 100-125 mm^3, mice were randomized into groups of 8 mice each using only mice having tumor volumes closest to the mean value. Tumor volumes were measured using the formula V=L×W×H×π/6, where L and W represent the longer and shorter diameters of the tumor and H represents the height of the tumor. Treatment began following randomization. PFK-158 was administered IP at a dose of 60 mg/kg on days 1, 3, 5, 7, 9, 11, and 13.
Similar protocols were used for the other studies using different models; differences included the use of Balbc/nude mice; administering larger number of cancer cells; and use of Matrigel.

The subject of series [5] is Jurkat cell line (leukemia cell line). Put plainly: Toxicity / cell growth of Jurkat cell line. The class given is cell-based. As to conditions: Homo sapiens, Jurkat; Table 1; read-out: IC50, toxicity of Jurkat cell line (leukemia cell line). On the procedure: The ability of PFK-158 to kill or inhibit the proliferation of cancer cells was measured using either the MTT assay, the alamarBlue® assay (Invitrogen, Grand Island, N.Y.), or the CellTiter Glo™ assay (Promega, Madison, Wis.) using 48 or 72 hours exposure.
Cells of the desired tumor cell line were plated at 2×10^5 cells/ml in 96 well plates. Twice the indicated concentrations of the compounds of the invention were added to cells the following day in an equal volume of media. 72 hours later, cells were lysed and subjected to ATP determination using the CellTiter-Glo™ Luminescent Cell Viability Assay kit. Experiments were performed in triplicate. When using the MTT assay or the alamarBlue® assay, the experimental conditions are essentially similar; at the end of the incubation period, 20 microliters of the MTT solution is added per well and the samples are incubated for an additional four hours, rinsed, and absorbance at 570 nm was measured. Results for the inhibition of cell proliferation are reported as the IC50 (the concentration resulting in 50% inhibition of proliferation of the cell population) and are listed in Table 5 below. Cell lines include lung, colon, prostate, breast, ovarian, and pancreatic cancer lines.

For series [6], the target named is T1, PFKFB3. Put plainly: Enzymatic activity of PFKFB3 in cells (F2,6BP levels, Van Schaftingen method). The note with it: Table 1; F2,6BP levels, Jurkat cells; read-out: IC50, Enzymatic activity of PFKFB3 in cells. The class given is cell-based. Set-up: endogenous in cells; host or cells: Jurkat cells. On the procedure:
Inhibition of PFKFB3 can also be measured in cells by measuring fructose-2,6-biphosphate levels according to the Van Schaftingen method (Eur. J. of Biochem, 129: 191 (1982)). This method enables measurement of the inhibition in a cellular environment, a model more relevant than the pure recombinant protein. Briefly, Jurkat cells were plated at 1×10^5 cells/mL and incubated with different concentrations of PFK-158 for 3 hours. Samples were collected and cells were lysed. Extracts were characterized as described in previous reports and normalized to protein concentration.

Series [7] can be described thus: Repeat-dose toxicology study in SD rats. The class given is in vivo. As to the method: Toxicology studies were performed in SD rats comparing PFK-158 and PFK-015 using a repeat dosing schedule. The studies were performed at dose levels ranging from 5 to 30 mg/kg and animals were monitored for weight loss, behavior, clinical signs, and clinical chemistries. At the end of the study, gross pathology and histopathology were performed.

A further series concerns Jurkat cells. Put plainly: Inhibition of 14C-2-deoxyglucose uptake. The class given is cell-based. The note with it: Homo sapiens; Table 1; Jurkat cells; read-out: IC50, Inhibition of 2 deoxyglucose uptake. As to the method:
Inhibition of PFKFB3 results in inhibiting glycolysis. Several feedback or feedforward activation and inhibition mechanisms exist so that, by a feedback mechanism, inhibiting the activity of PFKFB3 might inhibit glucose uptake by cells. An assay was developed to determine if there was inhibition of glucose uptake following exposure PFK-158. Briefly, Jurkat cells were plated at 10^5 cells/mL in RPMI 1640 supplemented with 10% fetal bovine serum and 50 μg/mL gentamicin sulfate. Cells were immediately treated with vehicle or 0.5 μmol/L of PFK-158 for 3 hours and subsequently placed in glucose-free RPMI 1640 for 30 min. ^14C-2-deoxyglucose (0.25 μCi/mL; Perkin Elmer) was added for an additional 60 min and cells were then washed three times with ice-cold RPMI 1640 containing no glucose. Cell lysates were collected in 500 μL of 0.1% SDS and scintillation counts (counts/min) were measured on 400 μL of lysate. Counts were normalized to protein concentration.

Series [8] in a line: In vitro stability in human liver microsomes. The class given is in vitro ADME.

T1 sequence (Q16875 whole entry): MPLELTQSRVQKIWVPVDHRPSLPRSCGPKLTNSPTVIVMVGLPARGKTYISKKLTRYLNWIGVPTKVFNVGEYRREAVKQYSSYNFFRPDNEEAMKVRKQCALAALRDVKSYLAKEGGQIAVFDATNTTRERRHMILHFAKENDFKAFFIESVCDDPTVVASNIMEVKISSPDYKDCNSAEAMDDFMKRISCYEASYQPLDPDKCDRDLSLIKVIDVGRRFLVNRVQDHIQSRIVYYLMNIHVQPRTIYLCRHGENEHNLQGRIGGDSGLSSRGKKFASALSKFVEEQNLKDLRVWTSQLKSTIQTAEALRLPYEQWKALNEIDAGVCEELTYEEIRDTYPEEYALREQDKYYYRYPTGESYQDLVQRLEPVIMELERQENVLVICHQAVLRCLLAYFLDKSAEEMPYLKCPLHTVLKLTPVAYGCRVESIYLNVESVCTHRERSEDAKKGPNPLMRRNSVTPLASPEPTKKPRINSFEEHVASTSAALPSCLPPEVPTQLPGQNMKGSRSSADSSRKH

Regarding `O=C(/C=C/c1ccc2ccccc2n1)c1ccncc1` [PFK-015], the IC50 on PFKFB3 [1] worked out at 318 ± 19 nM; in series [5], 800 ± 100 nM; on PFKFB3 [6], 4700 ± 1600 nM; in the series on Jurkat cells, 1200 ± 100 nM. In addition, the clearance in series [2] was determined as 46 mL/min/kg. In series [2], this compound showed a half-life of 5 h. Besides, in series [2] (read-out: AUC0-inf), the AUC(0-inf) worked out at 1800 ng·h/mL. Moreover, in series [2] (read-out: Cmax), the highest concentration (Cmax) stood at 3050 ng/mL. The MTD in series [3] was 30 mg/kg; in [7] (rat, in vivo, repeat dosing schedule), 12 mg/kg. The body weight loss result in series [4] is given as “higher than 15%”. Moreover, the “Adverse observations in toxicology study” value in [7] (repeat dosing, PFK-158 5 to 30 mg/kg, PFK-015 12 and 25 mg/kg) was “adverse observations at both dose levels”. Moreover, in series [8], the “Percent metabolized after 1 hr” value is recorded as 67%.
